ChEMBL document CHEMBL5096202, “Carbon-silicon switch led to the discovery of novel synthetic cannabinoids with therapeutic effects in a mouse model of multiple sclerosis” (Eur J Med Chem, 2021)
The source made the active and inactive calls. No cut-off for these calls is given here.

What was measured:
[1] = Cmax in C57BL/6 mouse at 10 mg/kg, ip measured upto 24 hrs by LC-MS/MS analysis; assay type: ADME, organism-based; set-up: dose 10 mg/kg, time < 24 hrs, route ip; conditions: in vivo
Mus musculus [2] = experiment: Antiinflammatory activity in MOG (35 to 55 residues)/pertussis toxin-induced experimental autoimmune encephalomyelitis C57BL/6 mouse model assessed as reduction of inflammatory cell infiltration in transverse section of lumbar spinal cords at 5 to 10 mg/kg, ip administered starting from day 3 to day 28 by H&E staining based analysis; assay type: functional, organism-based; conditions: dose 5-10 mg/kg, time 25.0 day
[3] = Metabolic stability in human liver microsomes assessed as half life; assay type: ADME, Microsome
[4] = AUCinfinity in C57BL/6 mouse at 10 mg/kg, ip measured upto 24 hrs by LC/MS-MS analysis; assay type: ADME, organism-based; set-up: dose 10 mg/kg, time < 24 hrs, route ip; conditions: in vivo
Mus musculus [5] = experiment: Antiinflammatory activity in MOG (35 to 55 residues)/pertussis toxin-induced experimental autoimmune encephalomyelitis C57BL/6 mouse model assessed as reduction in demyelination in transverse section of lumbar spinal cords at 5 to 10 mg/kg, ip administered starting from day 3 to day 28 by LFB staining based analysis; assay type: functional, organism-based; conditions: dose 5-10 mg/kg, time 25.0 day
[6] = Half life in C57BL/6 mouse at 10 mg/kg, ip measured upto 24 hrs by LC-MS/MS analysis; assay type: ADME, organism-based; conditions: in vivo
Mus musculus [7] = experiment: Antiinflammatory activity in MOG (35 to 55 residues)/pertussis toxin-induced experimental autoimmune encephalomyelitis C57BL/6 mouse model assessed as reduction in clinical score administered intraperitoneally starting from day 3 to day 28; assay type: functional, organism-based; conditions: route ip, time 25.0 day, DDE = dose-dependent effect
[8] = Metabolic stability in human liver microsomes assessed as intrinsic clearance; assay type: ADME, Microsome; conditions: read-out: CLH
Cannabinoid receptor 1 [9] = molecular target: T1, Cannabinoid receptor 1 (Homo sapiens, UniProt P21554); experiment: Displacement of [3H]-CP55940 from recombinant human CB1 receptor expressed in CHO cells assessed as inhibition constant incubated for 120 mins by radioligand binding assay; assay type: cell-based
T1 sequence (P21554 whole entry): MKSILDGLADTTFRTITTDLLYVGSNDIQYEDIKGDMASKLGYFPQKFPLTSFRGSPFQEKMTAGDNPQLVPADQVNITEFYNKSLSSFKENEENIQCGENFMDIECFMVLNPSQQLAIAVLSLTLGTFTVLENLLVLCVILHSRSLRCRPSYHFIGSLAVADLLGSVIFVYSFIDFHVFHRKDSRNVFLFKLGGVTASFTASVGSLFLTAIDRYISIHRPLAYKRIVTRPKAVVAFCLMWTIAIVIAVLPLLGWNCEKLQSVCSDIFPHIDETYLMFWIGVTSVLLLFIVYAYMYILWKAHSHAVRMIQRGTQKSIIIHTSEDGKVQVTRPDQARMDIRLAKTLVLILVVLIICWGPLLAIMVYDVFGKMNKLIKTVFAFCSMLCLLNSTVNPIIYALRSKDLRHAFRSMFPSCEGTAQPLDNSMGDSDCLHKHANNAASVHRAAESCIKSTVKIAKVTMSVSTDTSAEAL

[10] = Metabolic stability in mouse liver microsomes assessed as intrinsic clearance; assay type: ADME, Microsome; conditions: read-out: CLH
Mus musculus [11] = experiment: Antiinflammatory activity in MOG (35 to 55 residues)/pertussis toxin-induced experimental autoimmune encephalomyelitis C57BL/6 mouse model assessed as reduction of inflammatory cell infiltration in transverse section of lumbar spinal cords at 5 to 10 mg/kg, ip administered starting from day 3 to day 28 by LFB staining based analysis; assay type: functional, organism-based; conditions: dose 5-10 mg/kg, time 25.0 day
[12] = Metabolic stability in rat liver microsomes assessed as half life; assay type: ADME, Microsome
Cannabinoid receptor 1 [13] = molecular target: T1, Cannabinoid receptor 1; experiment: Agonist activity at recombinant human CB1 receptor expressed in CHO cells assessed as inhibition of forskolin-induced cAMP accumulation by measuring maximum efficacy preincubated for 15 mins followed by forskolin stimulation and measured after 15 mins by HTRF assay relative to control; assay type: functional, cell-based; conditions: filed as agonist, time 30.0 min
Mus musculus [14] = experiment: Antiinflammatory activity in MOG (35 to 55 residues)/pertussis toxin-induced experimental autoimmune encephalomyelitis C57BL/6 mouse model assessed as reduction in demyelination in transverse section of lumbar spinal cords at 5 to 10 mg/kg, ip administered starting from day 3 to day 28 by H&E staining based analysis; assay type: functional, organism-based; conditions: dose 5-10 mg/kg, time 25.0 day
[15] = Toxicity in MOG (35 to 55 residues)/pertussis toxin-induced experimental autoimmune encephalomyelitis C57BL/6 mouse model assessed as body weight loss at 5 to 10 mg/kg, ip administered starting from day 3 to day 28; assay type: organism-based; conditions: in vivo, 600 h, dose 5-10 mg/kg, time 25 day
[16] = Toxicity in MOG (35 to 55 residues)/pertussis toxin-induced experimental autoimmune encephalomyelitis C57BL/6 mouse model assessed as behavioral changes at 10 mg/kg, ip administered once daily starting from day 3 to day 28; assay type: organism-based; conditions: in vivo, 600 h, time 25 day
[17] = AUClast in C57BL/6 mouse at 10 mg/kg, ip measured upto 24 hrs by LC-MS/MS analysis; assay type: ADME, organism-based; set-up: time < 24 hrs, dose 10 mg/kg, route ip; conditions: in vivo
[18] = Tmax in C57BL/6 mouse at 10 mg/kg, ip measured upto 24 hrs by LC-MS/MS analysis; assay type: ADME, organism-based; conditions: in vivo
Cannabinoid receptor 2 [19] = molecular target: T2, Cannabinoid receptor 2 (Homo sapiens, UniProt P34972); experiment: Agonist activity at recombinant human CB2 receptor expressed in CHO cells assessed as inhibition of forskolin-induced cAMP accumulation by measuring maximum efficacy preincubated for 15 mins followed by forskolin stimulation and measured after 15 mins by HTRF assay relative to control; assay type: functional, cell-based; conditions: filed as agonist, time 30.0 min
T2 sequence (P34972 whole entry): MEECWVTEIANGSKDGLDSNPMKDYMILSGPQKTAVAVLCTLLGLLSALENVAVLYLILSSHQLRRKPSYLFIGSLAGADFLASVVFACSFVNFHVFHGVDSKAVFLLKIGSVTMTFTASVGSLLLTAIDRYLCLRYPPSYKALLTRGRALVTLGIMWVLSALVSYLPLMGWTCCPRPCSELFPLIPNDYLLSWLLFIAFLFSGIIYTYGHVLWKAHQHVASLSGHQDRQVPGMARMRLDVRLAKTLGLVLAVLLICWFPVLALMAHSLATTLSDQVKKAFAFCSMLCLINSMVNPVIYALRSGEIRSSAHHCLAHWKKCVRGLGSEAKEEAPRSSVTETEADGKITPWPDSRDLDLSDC

Cannabinoid receptor 2 [20] = molecular target: T2, Cannabinoid receptor 2; experiment: Agonist activity at recombinant human CB2 receptor expressed in CHO cells assessed as inhibition of forskolin-induced cAMP accumulation preincubated for 15 mins followed by forskolin stimulation and measured after 15 mins by HTRF assay; assay type: functional, cell-based
Cannabinoid receptor 1 [21] = molecular target: T1, Cannabinoid receptor 1; experiment: Agonist activity at recombinant human CB1 receptor expressed in CHO cells assessed as inhibition of forskolin-induced cAMP accumulation preincubated for 15 mins followed by forskolin stimulation and measured after 15 mins by HTRF assay; assay type: functional, cell-based
Mus musculus [22] = experiment: Antiinflammatory activity in MOG (35 to 55 residues)/pertussis toxin-induced experimental autoimmune encephalomyelitis C57BL/6 mouse model assessed as reduction in infarcted brain proportion at 5 to 10 mg/kg, ip administered starting from day 3 to day 28 by TTC staining based analysis relative to control; assay type: functional; set-up: scale not given: the % may be the effect or the level left; conditions: dose 5-10 mg/kg, time 25 day
[23] = Metabolic stability in mouse liver microsomes assessed as half life; assay type: ADME, Microsome
[24] = Metabolic stability in rat liver microsomes assessed as intrinsic clearance; assay type: ADME, Microsome; conditions: read-out: CLH
Cannabinoid receptor 2 [25] = molecular target: T2, Cannabinoid receptor 2; experiment: Displacement of [3H]-CP55940 from recombinant human CB2 receptor expressed in CHO cells assessed as inhibition constant incubated for 120 mins by radioligand binding assay; assay type: cell-based
Mus musculus [26] = experiment: Antiinflammatory activity in MOG (35 to 55 residues)/pertussis toxin-induced experimental autoimmune encephalomyelitis C57BL/6 mouse model assessed as reduction in demyelination in transverse section of lumbar spinal cords at 10 to 30 mg/kg, ip administered starting from day 3 to day 28 by H&E staining based analysis; assay type: functional, organism-based; conditions: dose 10-30 mg/kg, time 25.0 day
[27] = Toxicity in MOG (35 to 55 residues)/pertussis toxin-induced experimental autoimmune encephalomyelitis C57BL/6 mouse model assessed as motor defects at 30 mg/kg, ip administered once daily starting from day 3 to day 28; assay type: organism-based; conditions: in vivo, 600 h, time 25 day
Mus musculus [28] = experiment: Antiinflammatory activity in MOG (35 to 55 residues)/pertussis toxin-induced experimental autoimmune encephalomyelitis C57BL/6 mouse model assessed as reduction of inflammatory cell infiltration in transverse section of lumbar spinal cords at 10 to 30 mg/kg, ip administered starting from day 3 to day 28 by H&E staining based analysis; assay type: functional, organism-based; conditions: dose 10-30 mg/kg, time 25.0 day
Mus musculus [29] = experiment: Antiinflammatory activity in MOG (35 to 55 residues)/pertussis toxin-induced experimental autoimmune encephalomyelitis C57BL/6 mouse model assessed as reduction of inflammatory cell infiltration in transverse section of lumbar spinal cords at 10 to 30 mg/kg, ip administered starting from day 3 to day 28 by LFB staining based analysis; assay type: functional, organism-based; conditions: dose 10-30 mg/kg, time 25.0 day
[30] = Toxicity in MOG (35 to 55 residues)/pertussis toxin-induced experimental autoimmune encephalomyelitis C57BL/6 mouse model assessed as side effects at 10 to 30 mg/kg, ip administered once daily starting from day 3 to day 28; assay type: organism-based; conditions: in vivo, 600 h, dose 10-30 mg/kg, time 25 day
Mus musculus [31] = experiment: Antiinflammatory activity in MOG (35 to 55 residues)/pertussis toxin-induced experimental autoimmune encephalomyelitis C57BL/6 mouse model assessed as reduction in infarcted brain proportion at 10 to 30 mg/kg, ip administered starting from day 3 to day 28 by TTC staining based analysis relative to control; assay type: functional; set-up: scale not given: the % may be the effect or the level left; conditions: dose 10-30 mg/kg, time 25 day
Mus musculus [32] = experiment: Antiinflammatory activity in MOG (35 to 55 residues)/pertussis toxin-induced experimental autoimmune encephalomyelitis C57BL/6 mouse model assessed as reduction in demyelination in transverse section of lumbar spinal cords at 10 to 30 mg/kg, ip administered starting from day 3 to day 28 by LFB staining based analysis; assay type: functional, organism-based; conditions: dose 10-30 mg/kg, time 25.0 day
[33] = Toxicity in MOG (35 to 55 residues)/pertussis toxin-induced experimental autoimmune encephalomyelitis C57BL/6 mouse model assessed as body weight loss at 10 to 30 mg/kg, ip administered starting from day 3 to day 28; assay type: organism-based; conditions: in vivo, 600 h, dose 10-30 mg/kg, time 25 day
[34] = Toxicity in MOG (35 to 55 residues)/pertussis toxin-induced experimental autoimmune encephalomyelitis C57BL/6 mouse model assessed as tolerance at 30 mg/kg, ip administered once daily starting from day 3 to day 28; assay type: organism-based; conditions: in vivo, 600 h, time 25 day

Row | SMILES | Cmax [1] [ng/mL] | half-life [3] [min] | AUC(0-inf) [4] [ng·h/mL] | half-life [6] [min] | Activity (Mus musculus [7]) | CLint scaled [8] [mL/min/kg] | Ki (Cannabinoid receptor 1 [9]) [nM] | CLint scaled [10] [mL/min/kg] | half-life [12] [min] | AUC(0-t) at 24 h [17] [ng·h/mL] | Tmax [18] [h] | Emax (Cannabinoid receptor 2 [19]) [%] | EC50 (Cannabinoid receptor 2 [20]) [nM] | half-life [23] [min] | CLint scaled [24] [mL/min/kg] | Ki (Cannabinoid receptor 2 [25]) [nM] | also measured
1 | C=C(C)[C@@H]1CCC(C)=C[C@H]1c1c(O)cc([Si](C)(C)CCCCCC)cc1O | 1510 | 31.5 | 6840 | 314 | Dde | 55.2 | 1.56 | 128 | 19.4 | 6630 | 2 | 75.6 | 149 | 17.1 | 318 | 4.66 | Activity (Mus musculus [2]): Active; Activity (Mus musculus [5]): Active; Activity (Mus musculus [11]): Active; Emax (Cannabinoid receptor 1 [13]): 95.9%; Activity (Mus musculus [14]): Active; Activity [15]: Non-Toxic; Activity [16]: Toxic; EC50 (Cannabinoid receptor 1 [21]): 219 nM; Activity (Mus musculus [22]): 50%
2 | CCCCCC[Si](C)(C)c1cc(OC)c([C@H]2C=C(CO)[C@H]3C[C@@H]2C3(C)C)c(OC)c1 | 2520 | 49.7 | 12300 | 407 | Dde | 35 | 2890 | 173 | 58.9 | 11600 | 2 | 90.6 | 460 | 31.5 | 42.1 | 4930 | Activity (Mus musculus [26]): Active; Activity [27]: Non-Toxic; Activity (Mus musculus [28]): Active; Activity (Mus musculus [29]): Active; Activity [30]: Non-Toxic; Activity (Mus musculus [31]): 90%; Activity (Mus musculus [32]): Active; Activity [33]: Non-Toxic; Activity [34]: Non-Toxic
